# According to ChEMBL document CHEMBL4765331, “Amides of pyrrole- and thiophene-fused anthraquinone derivatives: A role of the heterocyclic core in antitumor properties” (Eur J Med Chem, 2020):
# The source made the active and inactive calls. The rule behind the calls is not given here.
# How the values were obtained:
# [1] = test system: K562; assay: Induction of cell cycle arrest in human K562 cells assessed as accumulation at G2/M phase at 2XIC50 measured after 48 hrs by propidium iodide/RNase staining based flow cytometry; format: functional
# [2] = Drug uptake in human K562i/S9 cells harboring exogenously expressed MDR1/Pgp; format: ADME, cell-based
# [3] = Selectivity index, ratio of IC50 for human TERT-RPE1 cells to IC50 for human CAPAN-1 cells
# [4] = test system: TERT-RPE1; assay: Cytotoxicity against human TERT-RPE1 cells assessed as inhibition of cell proliferation measured after 72 hrs by MTT assay; format: cell-based; settings: RPE-1, 72 h
# [5] = Selectivity index, ratio of IC50 for human TERT-RPE1 cells to IC50 for human NCI-H460 cells; format: toxicity; settings: TERT-RPE1 cells and NCI-H460 cells, read-out: Ratio IC50
# [6] = test system: K562; assay: Induction of oxidative stress in human K562 cells assessed as increase in intracellular ROS generation at 3.2 uM measured after 40 mins by Deep Red dye based flow cytometry method; format: functional, cell-based
# [7] = test system: NCI-H460; assay: Antiproliferative activity against human NCI-H460 cells assessed as inhibition of cell proliferation measured after 72 hrs by MTT assay; format: functional, cell-based; settings: NCI-H460, 72 h
# [8] = test system: K562; assay: Induction of cell cycle arrest in human K562 cells assessed as accumulation at subG1 phase at 2XIC50 measured after 24 hrs by propidium iodide/RNase staining based flow cytometry; format: functional
# [9] = test system: HCT-116; assay: Antiproliferative activity against human HCT-116 cells assessed as inhibition of cell proliferation measured after 72 hrs by MTT assay; format: functional, cell-based; settings: HCT-116, 72 h
# [10] = molecular target: T1, DNA topoisomerase 1 (Homo sapiens) (UniProt P11387); assay: Inhibition of human topoisomerase 1-mediated relaxation of supercoiled plasmid using pBR322 plasmid as substrate at 40 uM measured after 30 mins by ethidium bromide dye based agarose gel electrophoresis method
# T1 sequence (whole entry): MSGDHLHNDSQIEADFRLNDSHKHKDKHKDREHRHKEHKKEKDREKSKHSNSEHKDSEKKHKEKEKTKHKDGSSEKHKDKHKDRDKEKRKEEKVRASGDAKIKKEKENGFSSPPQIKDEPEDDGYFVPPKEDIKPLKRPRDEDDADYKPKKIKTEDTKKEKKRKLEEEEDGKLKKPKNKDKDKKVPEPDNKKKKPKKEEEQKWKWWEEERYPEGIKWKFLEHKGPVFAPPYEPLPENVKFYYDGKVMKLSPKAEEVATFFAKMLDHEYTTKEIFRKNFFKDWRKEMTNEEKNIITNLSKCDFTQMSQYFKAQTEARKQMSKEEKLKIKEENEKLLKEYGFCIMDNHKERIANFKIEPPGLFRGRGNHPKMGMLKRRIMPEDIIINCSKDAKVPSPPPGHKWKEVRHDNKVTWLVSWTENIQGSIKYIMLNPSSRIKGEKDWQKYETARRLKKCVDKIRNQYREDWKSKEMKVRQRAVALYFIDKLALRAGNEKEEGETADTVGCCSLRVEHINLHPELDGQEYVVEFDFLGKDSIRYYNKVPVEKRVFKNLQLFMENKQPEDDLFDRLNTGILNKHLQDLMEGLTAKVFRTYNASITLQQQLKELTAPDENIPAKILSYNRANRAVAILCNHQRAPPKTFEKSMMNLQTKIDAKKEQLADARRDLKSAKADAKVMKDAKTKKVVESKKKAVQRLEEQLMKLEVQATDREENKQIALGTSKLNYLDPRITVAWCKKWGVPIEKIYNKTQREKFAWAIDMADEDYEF
# [11] = test system: K562; assay: Induction of apoptosis in human K562 cells assessed as viable cells at 3.2 uM measured after 48 hrs by Annexin V-APC/PI staining based flow cytometry assay (reference value: 85.9%); format: functional; settings: read-out: Activity
# [12] = Antiproliferative activity against P-gp-positive/doxorubicin-resistant human K562/4 cells assessed as inhibition of cell proliferation measured after 72 hrs by MTT assay; format: functional; settings: K562/4, 72 h
# [13] = test system: K562; assay: Antiproliferative activity against human K562 cells assessed as inhibition of cell proliferation measured after 72 hrs by MTT assay; format: functional, cell-based; settings: K562, 72 h
# [14] = test system: CAPAN-1; assay: Antiproliferative activity against human CAPAN-1 cells assessed as inhibition of cell proliferation measured after 72 hrs by MTT assay; format: functional, cell-based; settings: CAPAN-1, 72 h
# [15] = test system: K562; assay: Induction of apoptosis in human K562 cells assessed as early apoptotic cells at 3.2 uM measured after 48 hrs by Annexin V-APC/PI staining based flow cytometry assay (reference value: 3.4%); format: functional
# [16] = Resistance index, ratio of IC50 for human P-gp-positive/Doxorubicin-resistant K562/4 cells to IC50 for human K562 cells; format: functional
# [17] = test system: K562; assay: Induction of apoptosis in human K562 cells assessed as necrotic cells at 3.2 uM measured after 24 hrs by Annexin V-APC/PI staining based flow cytometry assay (reference value: 3.9%); format: functional
# [18] = test system: K562; assay: Induction of apoptosis in human K562 cells assessed as necrotic cells at 3.2 uM measured after 48 hrs by Annexin V-APC/PI staining based flow cytometry assay (reference value: 3.9%); format: functional
# [19] = Drug uptake in mouse NIH3T3 cells assessed as compound localization in nucleus at 1 uM measured after 15 mins by laser scanning microscope; format: ADME, subcellular; settings: nih3t3, 0.25 h
# [20] = test system: Calf thymus DNA; assay: Binding affinity to calf thymus DNA assessed as dissociation constant by scatchard plot analysis; set-up: species or system Bos taurus
# [21] = test system: Calf thymus DNA; assay: Binding affinity to calf thymus DNA assessed as DNA intercalation by measuring decrease of negative DNA band at 245 nm at 50 uM by circular dichroism spectral analysis; format: tissue-based; settings: Bos taurus
# [22] = test system: Calf thymus DNA; assay: Binding affinity to calf thymus double stranded DNA at 10 uM measured after 5 mins by flourescence spectroscopy method; settings: Bos taurus
# [23] = test system: HCT-116; assay: Antiproliferative activity against human HCT-116 cells with inactivated p53 gene assessed as inhibition of cell proliferation measured after 72 hrs by MTT assay; format: functional, cell-based; settings: HCT-116, 72 h
# [24] = Drug uptake in mouse NIH3T3 cells assessed as compound localization in cytoplasm at 1 uM measured after 15 mins by laser scanning microscope; format: ADME, subcellular; settings: nih3t3, 0.25 h
# [25] = test system: HL-60; assay: Antiproliferative activity against human HL-60 cells assessed as inhibition of cell proliferation measured after 72 hrs by MTT assay; format: functional, cell-based; settings: HL-60, 72 h
# [26] = Selectivity index, ratio of IC50 for human TERT-RPE1 cells to IC50 for human HCT-116 cells; format: toxicity; settings: TERT-RPE1 cells and HCT-116 cells, read-out: Ratio IC50
# [27] = Drug uptake in mouse NIH3T3 cells assessed as compound localization in mitochondria at 1 uM measured after 15 mins by Mitotracker Green FM dye based laser scanning microscope; format: ADME; settings: nih3t3, 0.25 h
# [28] = test system: Calf thymus DNA; assay: Binding affinity to calf thymus DNA assessed as stoichiometry ratio of compound-DNA complex formation by scatchard plot analysis; settings: Bos taurus
# [29] = test system: K562; assay: Induction of apoptosis in human K562 cells assessed as viable cells at 3.2 uM measured after 24 hrs by Annexin V-APC/PI staining based flow cytometry assay (reference value: 85.9%); format: functional; settings: read-out: Activity
# [30] = Drug uptake in P-gp-positive/doxorubicin-resistant human K562/4 cells; format: ADME
# [31] = test system: Calf thymus DNA; assay: Binding affinity to calf thymus DNA assessed as binding constant by scatchard plot analysis; settings: Bos taurus
# [32] = Selectivity index, ratio of IC50 for human TERT-RPE1 cells to IC50 for human K562 cells; format: toxicity; settings: TERT-RPE1 cells and K562 cells, read-out: Ratio IC50
# [33] = Selectivity index, ratio of IC50 for human TERT-RPE1 cells to IC50 for human HL-60 cells; format: toxicity; settings: TERT-RPE1 cells and HL-60 cells, read-out: Ratio IC50
# [34] = test system: K562; assay: Induction of apoptosis in human K562 cells assessed as late apoptotic cells at 3.2 uM measured after 24 hrs by Annexin V-APC/PI staining based flow cytometry assay (reference value: […]); format: functional
# [35] = test system: K562; assay: Induction of apoptosis in human K562 cells assessed as early apoptotic cells at 3.2 uM measured after 24 hrs by Annexin V-APC/PI staining based flow cytometry assay (reference value: 3.4%); format: functional
# [36] = test system: K562; assay: Induction of cell cycle arrest in human K562 cells assessed as accumulation at G2/M phase at 2XIC50 measured after 24 hrs by propidium iodide/RNase staining based flow cytometry; format: functional
# [37] = test system: K562; assay: Induction of apoptosis in human K562 cells assessed as late apoptotic cells at 3.2 uM measured after 48 hrs by Annexin V-APC/PI staining based flow cytometry assay (reference value: […]); format: functional
# [38] = test system: K562; assay: Induction of apoptosis in human K562 cells assessed as viable cells at 1.6 uM measured after 48 hrs by Annexin V-APC/PI staining based flow cytometry assay (reference value: 85.9%); format: functional; settings: read-out: Activity
# [39] = test system: K562; assay: Induction of apoptosis in human K562 cells assessed as necrotic cells at 1.6 uM measured after 48 hrs by Annexin V-APC/PI staining based flow cytometry assay (reference value: 3.9%); format: functional
# [40] = test system: K562; assay: Induction of apoptosis in human K562 cells assessed as necrotic cells at 1.6 uM measured after 24 hrs by Annexin V-APC/PI staining based flow cytometry assay (reference value: 3.9%); format: functional
# [41] = Toxicity in ip dosed BDF1 mouse xenografted with mouse P388 cells administered qd for 5 days; format: organism-based; settings: in vivo, time 5 day
# [42] = test system: K562; assay: Induction of apoptosis in human K562 cells assessed as early apoptotic cells at 1.6 uM measured after 48 hrs by Annexin V-APC/PI staining based flow cytometry assay (reference value: 3.4%); format: functional
# [43] = test system: K562; assay: Induction of apoptosis in human K562 cells assessed as late apoptotic cells at 1.6 uM measured after 24 hrs by Annexin V-APC/PI staining based flow cytometry assay (reference value: […]); format: functional
# [44] = test system: K562; assay: Induction of apoptosis in human K562 cells assessed as late apoptotic cells at 1.6 uM measured after 48 hrs by Annexin V-APC/PI staining based flow cytometry assay (reference value: […]); format: functional
# [45] = test system: K562; assay: Induction of apoptosis in human K562 cells assessed as viable cells at 1.6 uM measured after 24 hrs by Annexin V-APC/PI staining based flow cytometry assay (reference value: 85.9%); format: functional; settings: read-out: Activity
# [46] = test system: K562; assay: Induction of oxidative stress in human K562 cells assessed as increase in intracellular ROS generation at 1.6 uM measured after 40 mins by Deep Red dye based flow cytometry method; format: functional, cell-based
# [47] = test system: K562; assay: Induction of apoptosis in human K562 cells assessed as early apoptotic cells at 1.6 uM measured after 24 hrs by Annexin V-APC/PI staining based flow cytometry assay (reference value: 3.4%); format: functional
SMILES,Activity [1],Drug uptake [2],Ratio IC50 [3],IC50 [4] [µM],selectivity ratio [5],IC50 [7] [µM],IC50 [9] [µM],inhibition [10],IC50 [12] [µM],IC50 [13] [µM],IC50 [14] [µM],Ratio IC50 [16],Kd [20] [µM],Activity [21],Activity [22],IC50 [23] [µM],IC50 [25] [µM],selectivity ratio [26],Ratio [28],Drug uptake [30],other results
N[C@H]1CCN(C(=O)c2csc3c(O)c4c(c(O)c23)C(=O)c2ccccc2C4=O)C1,Active,Active,2,12.9,2,2.1,1.8,Active,4.3,1.6,2.1,2.7,5,Active,Active,2.2,5.5,2,2,Active,Activity [6]: Active; Activity [8]: Active; viability at 3.2 µM [11]: 54.1%; Activity [15]: 0.9%; Activity [17]: 21.3%; Activity [18]: 35.1%; Drug uptake [19]: Active; Drug uptake [24]: Active; Drug uptake [27]: Active; viability at 3.2 µM [29]: 71.2%; Kb [31]: 2 10^5/M; selectivity ratio [32]: 2; selectivity ratio [33]: 2; Activity [34]: 6.7%; Activity [35]: 0.8%; Activity [36]: Active; Activity [37]: 9.9%
N[C@H]1CCN(C(=O)c2coc3c(O)c4c(c(O)c23)C(=O)c2ccccc2C4=O)C1,Active,Active,9,11.1,9,0.4,1.2,Active,1.4,0.9,0.3,1.5,11,Active,Active,1.3,0.5,9,2,Active,viability at 1.6 µM [38]: 51.9%; Activity [39]: 38.6%; Activity [40]: 20.6%; LD50 at 120 h [41]: 52 mg/kg; Activity [42]: 0.5%; Activity [43]: 8.1%; Activity [44]: 9.1%; viability at 1.6 µM [45]: 70%; Activity [46]: Active; Kb [31]: 0.9 10^5/M; selectivity ratio [32]: 9; selectivity ratio [33]: 9; Activity [47]: 1.3%
